# Source: patent US7183440B2, “Pharmaceutically useful compounds” (priority 2005, dated 2007)
# Where two headings read alike, the source gives them in different places.
# Experiments:
# HSF = HSF activation, luciferase reporter controlled by the human hsp70 promoter in HeLa cell clone 13B; format: cell-based; conditions: read-out: HSF AC200/μM
# Protocol: (§1) HeLa cell clone 13B, stably transfected with a luciferase reporter plasmid controlled by the human hsp70 promoter, and HeLa κB-transformed cells, stably transfected with a luciferase reporter plasmid controlled by a synthetic NF-κB-STM construct, were maintained in DMEM medium supplemented with 10% FBS, L-glutamine (2 mM) and G418 (250 μg/ml) at 37° C. in a 5% CO2 humidified atmosphere.
# (§2) Cells were seeded at a density of 4×10^4 cells/well in 96-well plates. After 18–20 h, the medium was removed and cells were treated for 8 h with the test compounds (100 μl) at the appropriate dilutions in serum-free medium. For the NF-κB-dependent reporter gene assay, cells were stimulated with TPA (25 ng/ml) 2 h after exposure to the compounds.
# (§3) After incubation, the medium was removed and cells were lysed in 10 μl of lysis buffer. The luciferase activity was determined by adding 100 μl of substrate and measuring the release of light using a Victor 1420 microplate reader (Wallac, Finland).
# (§4) The AC200/μM for HSF is the concentration at which the tested compound doubled the HSF activity in this assay. The IC50/μM for NF-κB is the concentration at which the tested compound halved the NF-κB activity in this assay. […] The LC50/μM is the concentration at which the tested compound killed half the cells in each assay. […] (n.d. means not done)
# NF-κB [1] = test: NF-κB-dependent luciferase reporter gene assay in HeLa κB-transformed cells stimulated with TPA; format: cell-based, human
# Protocol: as §1, §2, §3
# (§5) The fragment Kpn I-BamH I from the pGL3 basic vector containing the luciferase gene (PROMEGA) was inserted in the pcDNA3 vector (INVITROGEN) digested with Bgl II-KpnI. (This digestion removes the CMV-promoter from pcDNA3.) The resulting new vector was digested with Kpn I-Hind III and a promoter containing a ‘5×NF-κB binding sites-TATA box’ sequence was inserted upstream of the luciferase gene. This vector has been named STM.
# (§6) To obtain stable HeLa cell lines expressing the luciferase gene under the control of NF-κB, HeLa cells were transfected (using lipofectamine plus GIBCO) with the STM-Pvu I linearized vector, and selected for 20 days with G418 (800 μg/ml). After selection, the resistant HeLa cell pool was controlled (in quadruplicate samples) for luciferase activity after stimulation with TNFα, IL-1 and TPA.
# as §4
# in vitro [2] = format: cell-based; conditions: human
# Protocol: HeLa cells were plated in 96-well microtiter plates in 100 μl culture medium (4×10^4/well). After 20 hours, the cells were exposed to the test compounds at different dilutions and incubated for the next 8 h at 37° C. in a 5% CO2 humidified atmosphere. After 6 h incubation, the Alamar Blue was added in an amount equal to 10% of the culture volume (10 μl). Two hours after the addition of the Alamar Blue, the fluorescence was measured using a Victor 1420 microplate reader.
# Sendai virus = test: Replication of Sendai virus in 37RC cells, virus yield by haemagglutinin titration; format: cell-based; conditions: Respirovirus muris; 50% inhibitory dose/concentration at 24 hours, Sendai virus in 37RC cells; read-out: ID50/μM
# Protocol: Monkey kidney 37RC cells were grown at 37° C. in RPMI medium supplemented with 5% foetal bovine serum (FBS), L-glutarine (2 mM) and antibiotics. Sendai virus was grown in the allantoic cavity of 10-day-old embryonated eggs. Viral titre was expressed in haemagglutinating units (HAU) per ml; haemagglutinin titration was done according to standard procedures, as described in C. Amici et al. (J. Virol. 68: 6890–6899, 1994). […] Confluent 37RC monolayers were infected with Sendai Virus (5 HAU/ml) for 1 h at 37° C. After 1 hour incubation, viral inoculum was removed and cells were treated with the test compounds at different concentrations. Virus yields were determined 24 h post infection by haemagglutinin titration. Mock-infected cells were treated identically and processed for cytotoxicity assay (Neutral Red assay) at the same time (see below). The results were expressed as HAU/ml (each point represents the mean of duplicate samples).
# Monkey kidney 37RC cells = format: cell-based; conditions: concentration 100% toxic to uninfected 37RC cells, visually by microscopy
# in vitro [3] = format: cell-based; conditions: monkey, 50% lethal dose/concentration, neutral red assay, 37RC cells, read-out: LC50/μM
# Protocol: Cell viability was determined using the Neutral Red assay.
# [4] = Blood pressure of the anaesthetized rat, intravenous infusion; format: in vivo; conditions: doses from 30 μg/kg/min
# Text: Most prostaglandins have strong effects on vascular smooth muscle, and will lower blood pressure in animals and humans. A compound can be tested for its effect on the blood pressure of the anaestheized rat. Prostaglandins A1 and E1 can be used for comparison. Male Wistar rats were anaesthetized and test drugs can be infused intravenously. Blood pressure and heart rate can be recorded from the femoral artery. […] It can be determined whether or not a test compound affects blood pressure at various dosages. As a control, solvent alone can be used.
# NF-κB [5] = test: Luciferase activity of NF-κB-LUC transfected HeLa cell pool after stimulation; format: cell-based, human; conditions: resistant HeLa cell pool, quadruplicate samples; control 1369±149
# Text: as §5, §6
# HSF1 = conditions: cited from earlier work
# NF-κB [6] = conditions: at the same concentration (125–500 μM); cited from earlier work
# HeLa cells = test: in vitro; conditions: read-out: Toxicity Neutral Red LC50/μM; HeLa cells; concentration that killed half the cells
# Protocol: This assay was carried out on HeLa cells using a technique analogous to that described below in Example 36(b) for Monkey Kidney 37RC cells.
# as §4
# Cell viability was determined using the Neutral Red assay. 37RC cells were seeded at density of 6×10^4 cells/well in 24-well plates and incubated for 24 h. Confluent 37RC monolayers were treated with the test compounds at different dilutions for 24 h at 37° C. After incubation, the medium was removed and the cells were incubated with RPMI medium containing 40 μg/ml Neutral Red dye (500 μl/well). After 2 h at 37° C., the monolayers were washed with phosphate-buffered saline (PBS) and then with a solution containing 1% CaCl2 and 0.5% formaldehyde. After washing, a solution containing 1% acetic acid/50% ethanol was added to the monolayers (250 μl/well). After 10 min at room temperature, the absorbance was determined with a microplate reader (Victor 1420, Wallac) at 540 nm.
compound,measurement,setting,value
"CC(C)/C=C1/C(=O)C=CC1NC(=O)c1ccccc1 (stereo not drawn) [CTC-172, N-(5-iso-Butylidene-4-oxocyclopent-2-enyl)-benzamide]",EC (2-fold HSF activity),"HSF; Homo sapiens, concentration at which the compound doubled HSF activity, HeLa clone 13B, 8 h treatment",< 6.2 µM
same,IC50,"NF-κB [1]; Homo sapiens, concentration that halved NF-κB activity, HeLa reporter cells, TPA 25 ng/ml, 8 h treatment",< 6.2 µM
same,CC50 at 8 h,in vitro [2],50 µM
same,IC50,Sendai virus,0.3 µM
same,TD100/μM,Monkey kidney 37RC cells,10 µM
same,CC50 at 24 h,in vitro [3],4 µM
CCCCC[C@H](O)/C=C/[C@H]1C=CC(=O)[C@@H]1CCCCCCC(=O)O [Prostaglandin A1],effect on blood pressure,[4],dose-dependant falls in blood pressure
CCCCC[C@H](O)/C=C/[C@H]1[C@H](O)CC(=O)[C@@H]1CCCCCCC(=O)O [Prostaglandin E1],effect on blood pressure,[4],dose-dependant falls in blood pressure
CCCCCCCCCCCCCC(=O)O[C@@H]1[C@@H](C)[C@@]2(O)[C@@H](C=C(CO)C[C@]3(O)C(=O)C(C)=C[C@@H]23)[C@H]2C(C)(C)[C@]12OC(C)=O [TPA],luciferase activity,NF-κB [5],7181±444
O=C1C=CCC1 [cyclopent-2-en-1-one],concentration able to activate HSF1 and trigger synthesis of HSP70,HSF1,125 to 500 µM
same,block of NF-κB activation by chemical or physiological inducers,NF-κB [6],able to block NF-κB activation
TNFα,luciferase activity,NF-κB [5],6111±1231
"[(1R,2S)-2-(Naphthalen-2-ylsulfanyl)-4-oxocyclopentyl]-carbamic acid methyl ester; compound with benzene [CTM-237]",EC (2-fold HSF activity),HSF,28 µM
same,IC50,NF-κB [1],9 µM
same,CC50,HeLa cells,183 µM
